How the values were obtained:
[1] = target: T1, Bombyx mori EcR (VP16 fusion, CVBE switch construct) (Bombyx mori, UniProt P49881); assay: Z3 Assay (HEK-293 cells with CVBE and 6XEcRE LacZ, β-galactosidase reporter); conditions: for Fold Induction, Z3 Assay, 33 uM: 33 uM ligand; for Fold Induction, Z3 Assay, 33 uM / Fold Induction, Z3 Assay, 3.3 uM: ligand treated / DMSO treated cells; for Fold Induction, Z3 Assay, 33 uM / EC50 / Fold Induction, Z3 Assay, 3.3 uM: average of two wells; for EC50: read-out: Z3 assay EC50, β-galactosidase reporter; for EC50 / Z3 assay Rel Max FI: HEK-293 Z3 cells; for Fold Induction, Z3 Assay, 3.3 uM: 3.3 uM ligand; for Z3 assay Rel Max FI: maximum fold induction at any concentration relative to that of GS-E ligand
T1 sequence (P49881 86-606): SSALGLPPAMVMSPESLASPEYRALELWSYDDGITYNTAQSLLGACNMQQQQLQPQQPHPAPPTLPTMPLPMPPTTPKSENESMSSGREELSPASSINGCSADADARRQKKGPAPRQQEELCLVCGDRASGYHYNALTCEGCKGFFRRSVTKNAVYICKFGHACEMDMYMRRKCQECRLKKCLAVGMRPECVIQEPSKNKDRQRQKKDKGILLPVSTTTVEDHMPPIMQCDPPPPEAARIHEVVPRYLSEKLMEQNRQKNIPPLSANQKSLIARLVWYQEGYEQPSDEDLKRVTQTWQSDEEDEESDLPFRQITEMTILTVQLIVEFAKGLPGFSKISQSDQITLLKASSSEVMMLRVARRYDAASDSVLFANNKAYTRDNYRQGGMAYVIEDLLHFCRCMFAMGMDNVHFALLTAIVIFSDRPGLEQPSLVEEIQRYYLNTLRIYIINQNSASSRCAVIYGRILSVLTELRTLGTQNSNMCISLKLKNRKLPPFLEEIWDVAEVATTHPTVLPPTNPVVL
T1 sequence (P19793 1-462 partner): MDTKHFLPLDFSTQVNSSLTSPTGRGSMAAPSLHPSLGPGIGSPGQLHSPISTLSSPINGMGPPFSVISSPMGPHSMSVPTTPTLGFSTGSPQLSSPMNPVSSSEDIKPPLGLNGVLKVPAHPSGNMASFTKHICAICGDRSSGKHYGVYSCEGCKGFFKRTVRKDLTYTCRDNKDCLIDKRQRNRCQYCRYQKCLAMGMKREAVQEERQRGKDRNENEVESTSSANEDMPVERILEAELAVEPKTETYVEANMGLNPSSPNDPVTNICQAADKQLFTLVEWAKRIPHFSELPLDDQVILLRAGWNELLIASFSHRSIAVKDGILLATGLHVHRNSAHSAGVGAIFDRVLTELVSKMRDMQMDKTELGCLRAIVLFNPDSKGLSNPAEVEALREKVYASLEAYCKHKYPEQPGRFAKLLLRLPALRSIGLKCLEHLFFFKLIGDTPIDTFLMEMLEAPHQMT

[2] = target: GAL4 DBD-CfEcR(DEF)/VP16AD-MmRXRE (Choristoneura fumiferana, UniProt O77240); assay: 13B3 Assay (CHO stable cell line, luciferase reporter); conditions: for Fold Induction, 13B3 Assay, 33 uM: 33 uM ligand; for Fold Induction, 13B3 Assay, 33 uM / Fold Induction, 13B3 Assay, 3.3 uM: RLU ligand treated / RLU DMSO treated cells; for Fold Induction, 13B3 Assay, 33 uM / Fold Induction, 13B3 Assay, 3.3 uM / EC50: average of two wells; for Fold Induction, 13B3 Assay, 3.3 uM: 3.3 uM ligand; for 13B3 assay Rel Max FI: maximum fold induction at any concentration relative to that of GS-E ligand, CHO 13B3 cells; for EC50: read-out: 13B3 EC50, CHO 13B3 stable cell line, luciferase reporter, 48 h
Method in brief: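 CHO 13B3 clone stably expressing GAL4 DBD–CfEcR(DEF) and VP16AD–MmRXR(DE) with GAL4 RE–luciferase reporter; cells plated 24 h at 37 °C, then treated with ligands (DMSO stocks diluted 300-fold), 8 concentrations 33–0.01 μM.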

Row | SMILES | Fold Induction, Z3 Assay, 33 uM [1] | EC50 [1] | Fold Induction, 13B3 Assay, 33 uM [2] | Fold Induction, Z3 Assay, 3.3 uM [1] | Z3 assay Rel Max FI [1] | Fold Induction, 13B3 Assay, 3.3 uM [2] | 13B3 assay Rel Max FI [2] | EC50 [2]
1 | COc1cccc(C(=O)NN(C(=O)c2cccnc2Cl)C(C)(C)C)c1C [RG-100127] | 245 | 4680 nM | 365 |  |  |  |  | 
2 | COc1ccccc1C(=O)N(NC(=O)c1ccc2c(c1C)OCOC2)C(C)(C)C [RG-100216] | 398 | 1780 nM | 8037 |  |  |  |  | 
3 | COc1cc(C(=O)N(NC(=O)c2cccc(OC)c2C)C(C)(C)C)ccc1C [RG-100768] | 425 | 214 nM | 709 | 1246 | 1.129 |  |  | 
4 | COc1cc(C)ccc1C(=O)N(NC(=O)c1cccc(OC)c1C)C(C)(C)C [RG-100769] | 542 | 219 nM | 386 | 1096 | 1.109 | 1014 | 0.685 | 337 nM
5 | CCc1c(OC)cccc1C(=O)NN(C(=O)c1cc(OC)cc(OC)c1)C(C)(C)C [RG-100778] | 365 | 513 nM | 2344 |  | 1.000 |  |  | 
6 | CC(C)(C)N(NC(=O)c1c(F)cccc1F)C(=O)c1cc(Cl)cc(Cl)c1 [RG-100801] | 153 | 891 nM | 16 |  |  |  |  | 
7 | CC(=O)c1cccc(C(=O)NN(C(=O)c2cc(C)cc(C)c2)C(C)(C)C)c1C [RG-100814] | 1279 | 1150 nM | 1151 | 410 |  | 423 | 0.843 | 37900 nM
8 | COc1cc(Cl)ccc1C(=O)N(NC(=O)c1cccc(OC)c1C)C(C)(C)C [RG-100848] | 26 | 240 nM | 578 | 885 | 0.996 | 3391 | 0.666 | 1640 nM
9 | Cc1cc(C)cc(C(=O)N(NC(=O)c2ccc(CC#N)cc2)C(C)(C)C)c1 [RG-100875] | 1081 | 2040 nM | 1143 | 1006 | 0.818 | 23 | 0.853 | 4020 nM
10 | COc1cccc(C(=O)NN(C(=O)c2ccc(Cl)cc2F)C(C)(C)C)c1C [RG-100929] | 490 | 631 nM | 359 |  |  |  |  | 
11 | CCc1ccc(C(=O)NN(C(=O)c2ccccc2[N+](=O)[O-])C(C)(C)C)cc1 [RG-101013] | 846 | 1480 nM | 406 | 1039 | 0.720 | 1084 | 0.539 | 2260 nM
12 | Cc1cc(C)cc(C(=O)N(NC(=O)c2ccc3c(c2)COCO3)C(C)(C)C)c1 [RG-101016] | 394 | 2000 nM | 4693 |  |  |  |  | 
13 | CCc1c(C(=O)NN(C(=O)c2cccc(C)c2)C(C)(C)C)ccc2c1OCCO2 [RG-101036] | 404 | 54 nM | 908 | 767 | 1.049 | 4582 | 0.545 | 223 nM
14 | CC(C)(C)N(NC(=O)c1ccc2c(c1)OCO2)C(=O)c1ccc(F)cc1Cl [RG-101048] | 283 | 19100 nM | 701 |  |  |  |  | 
15 | COc1ccc(C(=O)NN(C(=O)c2ccc(F)cc2Cl)C(C)(C)C)cc1 [RG-101057] | 930 | 4470 nM | 842 | 632 | 0.697 | 33 | 0.569 | 4970 nM
16 | Cc1cc(C)cc(C(=O)N(NC(=O)c2cc3c(cc2C)OCO3)C(C)(C)C)c1 [RG-101088] | 302 | 4070 nM | 1400 |  |  |  |  | 
17 | Cc1cc(C)cc(C(=O)N(NC(=O)c2cc3c(cc2Cl)OCO3)C(C)(C)C)c1 [RG-101171] | 268 | 3240 nM | 8453 |  |  |  |  | 
18 | CCc1c(OC)cccc1C(=O)NN(C(=O)c1ccc(Cl)cc1OC)C(C)(C)C [RG-101218] | 398 | 316 nM | 1983 | 886 | 0.998 |  |  | 
19 | COc1cccc(C(=O)NN(C(=O)c2cc(C)ccc2Cl)C(C)(C)C)c1Cl [RG-101248] | 375 | 1440 nM | 415 |  |  |  |  | 
20 | Cc1cc(C)cc(C(=O)N(NC(=O)c2ccc3c(c2Br)OCCO3)C(C)(C)C)c1 [RG-101340] | 432 | 234 nM | 879 | 866 | 1.126 | 675 | 0.364 | 106 nM
21 | COc1cccc(C(=O)NN(C(=O)c2cc(C)cc(Br)c2)C(C)(C)C)c1C [RG-101353] | 439 | 107 nM | 718 | 530 | 1.078 | 1347 | 1.163 | 675 nM
22 | COc1cccc(C(=O)NN(C(=O)c2cc(Cl)cc(Br)c2)C(C)(C)C)c1C [RG-101408] | 398 | 148 nM | 326 | 780 | 1.118 |  |  | 
23 | Cc1cc(C)cc(C(=O)N(NC(=O)c2ccc3c(c2)OC(C)O3)C(C)(C)C)c1 (stereo not shown) [RG-101511] | 487 | 468 nM | 744 | 947 | 1.122 | 1912 | 0.811 | 794 nM
24 | COc1cc(C(=O)NN(C(=O)c2cc(C)cc(C)c2)C(C)(C)C)ccc1C [RG-101585] | 330 | 4900 nM | 1015 |  |  |  |  | 
25 | CCc1c(C(=O)NN(C(=O)c2cc(C)cc(C)c2)C(C)(C)C)ccc2c1OC(C)O2 (stereo not shown) [RG-101659] | 876 | 214 nM | 1185 | 954 |  | 1556 | 0.867 | 562 nM
26 | CCc1cccc(C(=O)NN(C(=O)c2cc(C)cc(C)c2)C(C)(C)C)c1C [RG-101691] | 1089 | 174 nM | 630 | 654 | 1.068 | 5245 | 0.918 | 406 nM
27 | Cc1cc(C)cc(C(=O)N(NC(=O)c2cccc(OC(F)(F)F)c2C)C(C)(C)C)c1 [RG-101692] | 860 | 309 nM | 170 | 435 | 0.975 | 4180 | 1.004 | 728 nM

Reference: patent US9102648B1, “Bioavailable diacylhydrazine ligands for modulating the expression of exogenous genes via an ecdysone receptor complex” (Intrexon Corporation, priority 2003, dated 2015)
